Consider ten compounds from US4006251A, “Bactericidal and fungicidal composition containing thiocarbanyl sulfenamides” (The B. F. Goodrich Company, priority 1973, dated 1977).

The subject of data set [1] is various infectious organisms. Nature of the data set: Activity against organisms, overall (Agar Screening Test and/or Penicillin Button Assay Test). The class given is cell-based. The conditions noted are these: organisms (a) to (d). From the text:
A. Agar Screening Test for Activity.
B. Penicillin Button Assay Test.

The nature of data set [2]: Acute oral toxicity test. The following applies: rat, in vivo, rats. As for the experimental part:
(§1) The thiocarbamylsulfenamide compounds were also evaluated as to their oral, dermal, and inhalation toxicity. The techniques employed are specified in Section 362.116 of the Regulations for the Enforcement of the Federal Insecticide, Fungicide, and Rodenticide Act, Interpretation 18 (Revised, Federal Register, April 4, 1969), or in the Federal Hazardous Substances Act. (Revised, Federal Register, September 17, 1964). Acute oral LD50, acute dermal LD50, and acute inhalation LC50 were determined; LD50 being the lethal dose for 50% of the test animals and LC50 being the lethal concentration for 50% of the test animals. Acute oral and acute inhalation tests were run using rats, while acute dermal testing was run using rabbits.
(§2) Two of the compounds evaluated for their activity against organisms (compounds A and G respectively in Example V) were tested for their toxicity following the procedure previously given in the specification.

A short description of data set [3]: Storage stability test, melting point, appearance and odor before and after aging. Type of data set: physicochemical. The conditions noted are these: for Melting point, after aging: air oven, closed bottles. As for the experimental part: (§3) D. Storage Stability Tests.
In addition to the titration test, other tests were run. The melting point of the compound was measured both before and after aging. Little or no change in melting point indicates good storage stability. Further, observations were made upon the appearance and odor of the compounds before and after aging.
(§4) This is important if the compounds are going to be used in disinfectant solutions, and stored and marked without a significant loss in activity against organisms. […] The compounds were aged in an air oven, while in closed bottles. The test methods used were previously described.

A short description of data set [4]: Acute inhalation toxicity test. Type of data set: in vivo, rats. The conditions noted are these: rat, in vivo, inhaled or intranasal; rats, inhalation. As to the method: as §1, §2
The subject of data set [5] is rats. Briefly: Acute inhalation toxicity test. The class given is in vivo. The conditions noted are these: classification according to federal regulations. As to the method: as §1, §2
Data set [6] is described as follows: Storage stability test, purity by titration before and after aging. Type of data set: physicochemical. The following applies: for Percent Purity, after aging: air oven, closed bottles. As for the experimental part:
as §3
Thiocarbamylsulfenamide compounds were tested for their stability upon storage at room temperature and after mild thermal aging. The principle test employed consisted of measuring the purity of a sample before and after aging. This was done by titrating a sample solution of the compound using potassium iodide, KI, and sodium thiosulfate, Na2 S2 O3. A 0.5 to 1.0 gram sample of the compound is weighed out and dissolved in 10 milliliters of chloroform. […] The calculations are: [formula] The value obtained is the percent by weight of the sample that is the desired thiocarbamylsulfenamide. The titration is run on the sample before and after aging. The change in purity of the compound indicates its decomposition upon storage.
as §4

Data set [7] can be described thus: Acute dermal toxicity test. The class given is in vivo, rabbits. The following applies: rabbit, in vivo, topical or ocular; rabbits, dermal. As for the experimental part: as §1, §2
In data set [8] the test system is rabbits. Nature of the data set: Acute dermal toxicity test. Type of data set: in vivo. The following applies: classification according to federal regulations. As to the method:
as §1, §2

For data set [9], the system named is various infectious organisms. The following applies: U.S. Pat. No. 2,692,862; cited from earlier work.
[10] abbreviates: before aging, sample for 50 °C, 10 days.
[11] abbreviates: before aging, sample for 80 °C, 16 hrs.

Converted amounts (≈) assume the structure as drawn. Like-named read-outs stand apart in the source and are kept apart here. Where only a bound is given, the exact number is not on record here.

`CCCCN(CCCC)C(=S)SN(C1CCCCC1)C1CCCCC1` [C, N,N-dibutylthiocarbamyl-N',N'-dicyclohexylsulfenamide]: in [1], the “activity against organisms (in words)” value is listed as “no activity”.

By LD50 is commonly meant the dose at which mortality reaches 50%. Higher therefore signals a less toxic substance. Broadly, the LC50 is the concentration that kills 50% of the test population. A higher LC50 goes with lower toxicity. As to `CN(C)C(=S)SN(C1CCCCC1)C1CCCCC1` [Compound A, N,N-dimethylthiocarbamyl-N',N'-dicyclohexylsulfenamide], the LD50 in data set [2] is 1100 mg/kg; in data set [7], above 10000 mg/kg. Besides, the “Amine odor, after aging” value in [3] (50 °C, 10 days) is on record as “slight”; in data set [3] (80 °C, 16 hrs.), “slight”. Besides, the “Melting point, after aging” value in data set [3] (50 °C, 10 days) was 85-87 °C; in data set [3] (80 °C, 16 hrs.) it was 83-85 °C. The “Color, after aging” value in data set [3] (80 °C, 16 hrs.) is given as “white”. For the same compound, the “Amine odor, before aging” value in data set [3] (sample for 50 °C, 10 days) is “slight”; in [3] (sample for 80 °C, 16 hrs.), “slight”. For the same compound, the “Color, before aging” value in data set [3] (sample for 50 °C, 10 days) is “white”; in [3] (sample for 80 °C, 16 hrs.), “white”. Further, the “Melting point, before aging” value is 85-87 °C in [3] (sample for 50 °C, 10 days) and 84-85 °C in data set [3] (sample for 80 °C, 16 hrs.). Besides, in data set [1], the “activity against organisms (in words)” value was “good activity against organisms”. The compound further came in with an LC50 in data set [4] of 78 µg/mL (≈ 260 µM). Also, in [5], the “toxicity by inhalation (in words)” value was “non-toxic”. Also, the “Percent Purity, after aging” value in data set [6] (after aging, 50 °C, 10 days) was found to be 99%; in data set [6] (after aging, 80 °C, 16 hrs.), 97%. For the same compound, the “Percent Purity, before aging” value in [6] (setting [10]) came to 99%; in data set [6] (setting [11]), 100%. Also, the “toxicity by dermal absorption (in words)” value in [8] is recorded as “non-toxic”.

As for `CCN(CC)C(=S)SN(C1CCCCC1)C1CCCCC1` [Compound B, N,N-diethylthiocarbamyl-N',N'-dicyclohexylsulfenamide], the “activity against organisms (in words)” value in data set [1] is given as “good activity”.

In data set [2], `S=C(SN1CCOCC1)N1CCOCC1` [Compound G, N-oxydiethylenethiocarbamyl-N'-oxydiethylenesulfenamide] gave an LD50 of 5100 mg/kg. In addition, in [3] (80 °C, 16 hrs.), the “Amine odor, after aging” value was “slight” and the “Melting point, after aging” value was 135-139 °C. Besides, in data set [3] (sample for 80 °C, 16 hrs.), the “Amine odor, before aging” value is on record as “slight”; the “Color, before aging” value was “white”; the “Melting point, before aging” value was 136-139 °C. In addition, the “activity against organisms (in words)” value in data set [1] is “good activity against organisms”. This compound also displayed a 50% lethal concentration (LC50) in data set [4] of 164 µg/mL (≈ 660 µM). For the same compound, the “toxicity by inhalation (in words)” value in data set [5] is recorded as “non-toxic”. For the same compound, the “Percent Purity, before aging” value in data set [6] came out at 98. In addition, the “Percent Purity, after aging” value in data set [6] (16 h) is recorded as 98. The same compound displayed an LD50 in data set [7] above 10000 mg/kg. In addition, in data set [8], the “toxicity by dermal absorption (in words)” value was “non-toxic”.

In the case of `CN(C)C(=S)SNc1ccccc1` [Compound H, N,N-dimethylthiocarbamyl-N'-phenylsulfenamide], the “activity against organisms (in words)” value in data set [1] is listed as “good activity”.

Take `CCCCCCCCCCCCCCCCCCCCN(CCCCCCCCCCCCCCCCCCCC)C(=S)SN(C1CCCCC1)C1CCCCC1` [D, N,N-dieicosylthiocarbamyl-N',N'-dicyclohexylsulfenamide]: the “activity against organisms (in words)” value in [1] was “no activity”.

For `S=C(SN(C1CCCCC1)C1CCCCC1)N1CCOCC1` [E, N-oxydiethylenethiocarbamyl-N',N'-dicyclohexylsulfenamide], the “activity against organisms (in words)” value in [1] was “almost no activity”.

Turning to `CCN(CC)C(=S)SNc1ccccc1` [I, N,N-diethylthiocarbamyl-N'-phenylsulfenamide], the “activity against organisms (in words)” value in data set [1] was “very little activity”.

For `CN(C)SC(=S)N(C)C` [J, N,N-dimethylthiocarbamyl-N',N'-dimethylsulfenamide, reference compound], the “known activity against organisms (in words)” value in data set [9] was “known to have activity against organisms”. For the same compound, in [3] (50 °C, 10 days), the “Amine odor, after aging” value is reported as “strong”; the “Color, after aging” value is given as “yellow”; the “Melting point, after aging” value is 34-39 °C. Besides, in data set [3] (sample for 50 °C, 10 days), the “Amine odor, before aging” value was “slight” and the “Melting point, before aging” value was 49-51 °C. Further, the “Percent Purity, after aging” value in data set [6] (after aging, 50 °C, 10 days) came out at 77%. For the same compound, the “Percent Purity, before aging” value in data set [6] (setting [10]) is recorded as 96%.

For the compound `CC(C)N(SC(=S)N(C)C)C(C)C` [K, N,N-dimethylthiocarbamyl-N',N'-diisopropylsulfenamide, reference compound], in data set [9], the “known activity against organisms (in words)” value is listed as “known to have activity against organisms”. Besides, in data set [3] (80 °C, 16 hrs.), the “Amine odor, after aging” value is reported as “strong” and the “Melting point, after aging” value was 53-54 °C. In [3] (sample for 80 °C, 16 hrs.), the “Amine odor, before aging” value is “mild”; the “Color, before aging” value is “white”; the “Melting point, before aging” value was 56-57 °C. In addition, the “Percent Purity, after aging” value in data set [6] (after aging, 80 °C, 16 hrs.) was determined as 89%. Further, the “Percent Purity, before aging” value in data set [6] (setting [11]) worked out at 93%.
